According to ChEMBL document CHEMBL4385664, “Targeting TRAIL” (Bioorg Med Chem Lett, 2019):

Test: Activation of TRAIL receptor in human T98G cells assessed as reduction in cel viability by Cell-titer-Glo luminescent cell viability assay
Assay type: cell-based

Structure (SMILES)	IC50 [µM]
N=C1S/C(=C\c2ccc(-c3ccc4c(c3)C(=O)NC4=O)o2)C(=O)N1c1ccc(Br)cc1	2
COc1ccc(N2C(=N)S/C(=C\c3ccc(-c4ccc5c(c4)C(=O)N(Cc4ccccc4)C5=O)o3)C2=O)cc1	> 30
N=C1S/C(=C\c2ccc(-c3ccc4c(c3)C(=O)NC4=O)o2)C(=O)N1c1ccccc1	> 30
COc1ccc(N2C(=N)S/C(=C\c3ccc(-c4ccc5c(c4)C(=O)NC5=O)o3)C2=O)cc1	> 30
Cc1ccc(N2C(=N)S/C(=C\c3ccc(-c4ccc5c(c4)C(=O)NC5=O)o3)C2=O)cc1	> 30
COc1ccc(N2C(=N)S/C(=C\c3ccc(-c4ccc5c(c4)C(=O)N(C)C5=O)o3)C2=O)cc1	> 30
COc1ccc(N2C(=N)S/C(=C\c3ccc(-c4ccccc4)o3)C2=O)cc1	> 30
N=C1S/C(=C\c2ccc(-c3ccc4c(c3)C(=O)NC4=O)o2)C(=O)N1c1ccccn1	> 30
Cc1csc(N2C(=N)S/C(=C\c3ccc(-c4ccc5c(c4)C(=O)NC5=O)o3)C2=O)n1	> 30
CN(C)c1ccc(N2C(=N)S/C(=C\c3ccc(-c4ccc5c(c4)C(=O)NC5=O)o3)C2=O)cc1	> 30
COc1ccc(N2C(=N)S/C(=C\c3ccc(-c4ccc5c(c4)C(=O)NC5=O)s3)C2=O)cc1	10
N=C1S/C(=C\c2ccc(-c3ccc4c(c3)C(=O)NC4=O)o2)C(=O)N1c1ccc(Cl)cc1	25
COc1ccc(N2C(=N)S/C(=C\c3ccc(-c4cccnc4)o3)C2=O)cc1	25
N=C1S/C(=C\c2ccc(-c3ccc4c(c3)C(=O)NC4=O)o2)C(=O)N1c1ccc(F)cc1	20
COc1cccc(N2C(=N)S/C(=C\c3ccc(-c4ccc5c(c4)C(=O)NC5=O)o3)C2=O)c1	10
COc1ccc(N2C(=N)S/C(=C\c3ccc(-c4ccncc4)o3)C2=O)cc1	20
CN1C(=N)S/C(=C\c2ccc(-c3ccc4c(c3)C(=O)NC4=O)o2)C1=O	> 30
COc1ccc(N2C(=N)S/C(=C\c3ccc(-c4cncnc4)o3)C2=O)cc1	> 30
COc1ccc(N2C(=O)S/C(=C\c3ccc(-c4ccc5c(c4)C(=O)NC5=O)o3)C2=O)cc1	> 30
N=C1S/C(=C\c2ccc(-c3ccc4c(c3)C(=O)NC4=O)o2)C(=O)N1c1ccc(C(F)(F)F)cc1	> 30
C=CCN1C(=N)S/C(=C\c2ccc(-c3ccc4c(c3)C(=O)NC4=O)o2)C1=O	> 30
N=C1S/C(=C\c2ccc(-c3ccc4c(c3)C(=O)NC4=O)o2)C(=O)N1c1ncc[nH]1	20
COc1ccc(N2C(=N)S/C(=C\c3ccc(-c4ccc(OC)c(F)c4)o3)C2=O)cc1	20
COc1ccc(/C=C2\SC(=N)N(c3ccc(OC)cc3)C2=O)cc1	> 30
